Data from US20210261594A1, “USE OF AVERMECTIN DERIVATIVE FOR INCREASING BIOAVAILABILITY AND EFFICACY OF MACROCYLIC LACTONES” (INSTITUT NATIONAL DE RECHERCHE POUR L'AGRICULTURE, …, priority 2011, published 2021).
Where two headings read alike, the source gives them in different places. *1 amine or outer side, *2 acyl side, *3 side chain or, on linkers, in order; H or OH if unused. Where a SMILES comes first, the peptide text is derived from it. Bridges are numbered along the chain shown (N, C = ends). Roman numbers before positions name the chains, in order. [ ]: non-standard residue; d: D form. Actinocin(9to1) = Cc1c2oc3c(C)ccc(C(=O)[*:1])c3nc-2c(C(=O)[*:2])c(N)c1=O; NMeV = CN[C@H](C(=O)O)C(C)C; Sar = CNCC(=O)O

Tests used:
[1] = tested on: vinblastine-resistant CEM/VBL cells; assay: Reversal of vinblastine resistance in CEM/VBL cells, MTT test; assay type: cell-based, Human; settings: 1 μM vinblastine
Excerpt: (§1) Multidrug resistant tumor cells used in the present invention were Human lymphoma parental CEM and vinblastine-resistant CEM/VLB (Zordan-Nudpo et al., 1993) and parental […] and multidrug resistant cells DC-3F/ADX selected from spontaneously transformed DC-3F Chinese hamster lung fibroblasts on the basis of their resistance to actinomycin D (Biedler and Riehm, 1970). Both types of resistant cells overexpressed Pgp.
(§2) CEM/VLB cells and DC-3F/ADX cells described in aforementioned part 1.3 were plated into 96 well plates and allowed to grow for 24 h. They were then incubated 4 days with vinblastine (concentration range 0-1 μM) with or without IVM at 2.5 μM or ivermectin aglycone (IVM-Agly) at 2.5 and at 5 μM (FIG. 7); or 2 days with actinomycin D with actinomycin (concentration range 0.01-10 μM) with or without ivermectin (IVM) or ivermectin aglycone (IVM-Agly) at 5 μM (FIG. 8). Cytotoxicity was determined using the MTT test. IC50 values were graphically determined and they represent the concentration needed for half cell survival. Fold reversal of multidrug resistance called reversion factors were the ratio of IC50 for toxic drug alone/IC50 for toxic drug in the presence of IVM-Agly.

[2] = tested on: Human lymphoma parental CEM cells; assay: Vinblastine cytotoxicity in parental CEM cells, MTT test; assay type: cell-based; settings: at concentrations below 0.001 μM
Excerpt: as §1, §2

[3] = molecular target: T1, rat GABA(A) receptor (α1, β2 and γ2 subunits) (Rattus norvegicus, UniProt P18508+P62813+P63138); assay: GABA receptor affinity test, two-electrode voltage clamp in Xenopus oocytes; assay type: cell-based; settings: for EC50: co-application with 2 μM GABA (EC10), Xenopus oocytes, read-out: EC50: concentration needed to induce half of the maximal potentiation of GABA effect; for agonist strength at GABA receptors, in words: compared to ivermectin
T1 construct: expressed in transfected cells; host or cells: Xenopus laevis oocytes injected with RNA
Protocol: The ability of ivermectin or moxidectin or ivermectin aglycone or ivermectin monosaccharide to interact with GABA receptors is assayed by electrophysiology measurements. Xenopus laevis oocytes are injected with 46 nl of RNA solution, with RNA coding for α1, β2 and γ2 subunits of the GABA channel at a ratio of 10:10:50 nM. The injected oocytes are incubated in modified Barth's solution [90 mM NaCl, 3 mM KCl, 0.82 mM MgSO4, 0.41 mM CaCl2, 0.34 mM Ca(NO3)2, 100 U/ml penicillin, 100 μg/ml streptomycin and 100 μg/ml kanamycin, 5 mM HEPES pH 7.6] at 18° C. for approximately 36 h before the measurements to ensure the expression of a functional receptor.
Electrophysiological experiments are performed by the two-electrode voltage-clamp method. Measurements were done in ND96 medium containing 96 mM NaCl, 2 mM KCl, 1 mM […], 1.8 mM CaCl2 and 5 mM HEPES, pH 7.5, at a holding potential of −80 mV. The control current is evoked by the application of 2 μM GABA and the normalized relative potentiation of 2 μM GABA-evoked currents by increasing concentration of ivermectin, moxidectin, ivermectin aglycone, or ivermectin monosaccharide is determined as:
[(IMLs+2 μM GABA/I2 μM GABA alone)/(I(MLs+2 μM GABA)Max/I2 μM GABA alone)]×100%
where I2 μM GABA is the control current evoked by 2 μM GABA, IMLs+2 μM GABA is the current evoked by each drug concentration in co-applications with 2 μM GABA, and I(MLs+2 μM GABA)Max is the maximal current evoked by co-applications of drugs and 2 μM GABA. A washout period of 4 min between each GABA application is introduced, allowing receptors to recover from desensitization. Three different batches of oocytes are used to collect data for each analysis. The perfusion system is cleaned between two experiments by washing with 10% DMSO after application of MLs derivatives to avoid contamination.

[4] = tested on: multidrug resistant cells DC-3F/ADX; assay: Reversal of actinomycin D resistance in DC-3F/ADX cells, MTT test; assay type: cell-based, Chinese hamster; settings: for RF (IC50 for toxic drug alone/IC50 for toxic drug in the presence of compound): ActD; for RF (IC50 for toxic drug alone/IC50 for toxic drug in the presence of compound) / toxicity of actinomycin D when combined with the compound: compound at 5 μM
Excerpt: as §1, §2

[5] = tested on: Caenorhabditis elegans resistant to ivermectin (IVR10); assay: Ivermectin resistance gravid assay in Caenorhabditis elegans IVR10; assay type: in vivo; settings: for RF: C. elegans IVR10, IC50 IVM alone / IC50 IVM with reversal agent; for effect of the agent alone on the development of C. elegans: verapamil at 8 μM, IVM-Agly at 10 ng/ml
Protocol: A gravid assay method, based on the development of eggs to gravid adults over a 96 hr incubation period, was used to determine the resistance with respect to ivermectin (IVM) in C. elegans. The eggs were collected through rinsing the C. elegans worms resistant to IVM (IVR10). Sixty eggs were incubated/well, in standard conditions for four days (96 hours) in order reach adulthood (gravid) in the presence of drugs as followed: ivermectin aglycone (IVM-Agly) alone at 10 ng/ml (11.4 nM); verapamil (VRP) alone at 8 μM; IVM alone: […]; IVM+VRP 8 μM: 0, 1, 2, 4, 6, 8, 10, 20 ng/ml IVM; IVM+IVM-Agly 10 ng/ml: 0, 1, 2, 4, 6, 8, 10, 20 ng/ml ([…]) IVM. Assays were performed in triplicates per condition treatment and the experiment was performed 3 times.

murine Pgp (mdr1a) = molecular target: T2, murine Pgp (mdr1a) (Mus musculus, UniProt P21447); assay: Rhodamine 123 transport test in LLC-PK1-mdr1a cells overexpressing murine Pgp; assay type: cell-based; settings: LLCPK1-mdr1a cells; for Cmax: concentration to obtain maximum inhibitory effect / Emax: maximum effect compared to maximum effect obtained with 5 μM of valspodar: rhodamine 123
T2 construct: expressed in transfected cells; host or cells: LLC-PK1 pig kidney epithelial cells (LLC-PK1-mdr1a), available in the INRA laboratory
Protocol: (§3) The cells used were LLC-PK1, pig kidney epithelial cell lines, and LLC-PK1-mdr1a which are recombinant LLC-PK1 cells overexpressing murine abcb1a gene. All cell lines are available in INRA laboratory. The transfected cell line LLC-PK1-HcPgpA, which overexpress nematode Haemonchus contortus PgpA, was developed by R. Prichard (McGill University). Cells were cultured in medium 199 supplemented with penicillin (100 units/ml), streptomycin ([…]), 10% of foetal calf serum and geneticin G418 (400 mg/1) as selecting compound for the LLC-PKI-mdr1a and LLC-PK1-HcPgpA cells. All compounds and medium are from Invitrogen, Cergy Pontoise, France. Cells were seeded on 24-well plates (Sarstedt, Orsay, France) at 2×10^5 cells/well in G418-free medium until confluence for transport activity and on 96-well plates for viability assay.
(§4) Cells were cultured with rhodamine 123 (10 μM, purchased from Sigma) with or without valspodar (VSP, […]). Compounds of interest were dissolved in DMSO and diluted in the medium (final DMSO concentration=0.1%) in a concentration range of 0.1-50 μM. After the 2-h incubation period, the cells were lysed and lysates were stored at −20° C. until analysis. To study the Pgp transport activity, the intracellular accumulation of fluorescent Rho 123 was determined by reading fluorescence in the cell lysates with a spectrofluorimeter (PerkinElmer LS50B, max excitation=507 nm; max emission=529 nm). Protein concentration was determined in lysates with BCA kit using bovine serum albumin as protein standard (Thermo scientific) Results were expressed as fluorescence arbitrary units after normalization to cellular protein content per well.

[6] = molecular target: nematode Haemonchus contortus PgpA (HcPgpA) (Haemonchus contortus, UniProt O61301); assay: Rhodamine 123 transport test in LLC-PK1-HcPgpA cells overexpressing nematode Pgp; assay type: cell-based; settings: for EC50: LLC-PK1-HcPgpA cells, read-out: EC50, concentration of half inhibitory effect, Nematode PgpA
Protocol: as §3, §4

Mdr1ab−/− mice = assay: In vivo toxicity test in Pgp-deficient mice; settings: mouse, sc
Protocol: Wild-type and the Pgp knock-out mdr1ab^−/− mice with a FVB genetic background were obtained from Taconic (NY, USA). In rodents, there are two Pgps encoded by abc1a and abc1b genes and mdr1ab^−/− mice were deficient for the two gene products. Mice were housed at INRA's transgenic rodent facility at 22±2° C. under 12-hour light/dark cycles. Animals sampling was designed to reduce the influence of interfering parameters such as litter specificity (seven to nine different litters for a ten animals group). Mice received a standard chow diet recommended for the breeding and rearing of rodents (Harlan Teklad TRM Rat/Mouse Diet; Harlan Teklad, Gannat, France). Water and food were available ad libitum. In vivo studies were conducted in mice under European laws on the protection of animals and protocols are performed under procedure and principal for good clinical practice.
Toxicity of ivermectin and ivermectin aglycone is measured in Pgp-deficient mice. Mdr1ab^−/− mice are injected subcutaneously with increasing doses of ivermectin or ivermectin aglycone formulated in propylene glycol/[…] (60:40, v/v). Higher injected doses are 1.5 mg/kg (1.7 μmol/kg) for ivermectin and 16 mg/kg (27 μmol/kg) for ivermectin aglycone, respectively. Toxicity is evaluated during 24 h. […]

[7] = Table 2, read-out: EC50, concentration of half inhibitory effect, Murine Pgp

T2 sequence (P21447 whole entry): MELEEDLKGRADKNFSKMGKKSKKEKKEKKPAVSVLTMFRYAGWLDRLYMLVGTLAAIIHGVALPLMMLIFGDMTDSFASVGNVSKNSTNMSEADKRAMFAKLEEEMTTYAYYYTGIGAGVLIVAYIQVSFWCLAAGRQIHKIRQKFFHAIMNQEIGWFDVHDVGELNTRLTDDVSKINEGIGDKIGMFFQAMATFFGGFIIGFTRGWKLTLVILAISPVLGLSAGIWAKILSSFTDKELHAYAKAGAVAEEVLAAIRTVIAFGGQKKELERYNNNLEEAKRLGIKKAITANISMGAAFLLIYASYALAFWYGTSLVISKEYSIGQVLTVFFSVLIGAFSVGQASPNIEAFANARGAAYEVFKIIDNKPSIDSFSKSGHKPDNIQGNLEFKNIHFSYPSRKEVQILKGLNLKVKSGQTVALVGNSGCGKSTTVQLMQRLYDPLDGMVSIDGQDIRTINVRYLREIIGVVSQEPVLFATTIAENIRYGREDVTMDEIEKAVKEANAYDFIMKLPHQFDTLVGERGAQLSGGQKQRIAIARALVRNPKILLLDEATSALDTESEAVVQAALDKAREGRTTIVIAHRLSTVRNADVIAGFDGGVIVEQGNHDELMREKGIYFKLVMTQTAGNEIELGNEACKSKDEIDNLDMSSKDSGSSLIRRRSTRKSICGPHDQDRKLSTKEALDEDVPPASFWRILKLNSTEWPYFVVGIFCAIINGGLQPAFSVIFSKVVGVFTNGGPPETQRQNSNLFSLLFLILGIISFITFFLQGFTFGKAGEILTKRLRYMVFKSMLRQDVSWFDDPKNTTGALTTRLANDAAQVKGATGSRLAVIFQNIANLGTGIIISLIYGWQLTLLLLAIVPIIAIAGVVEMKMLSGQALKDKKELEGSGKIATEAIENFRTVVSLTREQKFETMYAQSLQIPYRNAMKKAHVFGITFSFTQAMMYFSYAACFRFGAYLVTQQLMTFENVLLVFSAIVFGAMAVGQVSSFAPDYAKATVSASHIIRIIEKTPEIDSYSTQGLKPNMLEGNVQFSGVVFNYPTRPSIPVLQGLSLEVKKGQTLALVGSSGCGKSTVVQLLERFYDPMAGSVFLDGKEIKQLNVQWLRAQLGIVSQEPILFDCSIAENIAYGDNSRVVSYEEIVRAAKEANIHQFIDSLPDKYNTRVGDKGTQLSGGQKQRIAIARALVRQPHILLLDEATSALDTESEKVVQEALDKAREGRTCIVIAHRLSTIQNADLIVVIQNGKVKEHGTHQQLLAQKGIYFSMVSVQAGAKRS
Sequence of nematode Haemonchus contortus PgpA (HcPgpA) (O61301 entry or part of it): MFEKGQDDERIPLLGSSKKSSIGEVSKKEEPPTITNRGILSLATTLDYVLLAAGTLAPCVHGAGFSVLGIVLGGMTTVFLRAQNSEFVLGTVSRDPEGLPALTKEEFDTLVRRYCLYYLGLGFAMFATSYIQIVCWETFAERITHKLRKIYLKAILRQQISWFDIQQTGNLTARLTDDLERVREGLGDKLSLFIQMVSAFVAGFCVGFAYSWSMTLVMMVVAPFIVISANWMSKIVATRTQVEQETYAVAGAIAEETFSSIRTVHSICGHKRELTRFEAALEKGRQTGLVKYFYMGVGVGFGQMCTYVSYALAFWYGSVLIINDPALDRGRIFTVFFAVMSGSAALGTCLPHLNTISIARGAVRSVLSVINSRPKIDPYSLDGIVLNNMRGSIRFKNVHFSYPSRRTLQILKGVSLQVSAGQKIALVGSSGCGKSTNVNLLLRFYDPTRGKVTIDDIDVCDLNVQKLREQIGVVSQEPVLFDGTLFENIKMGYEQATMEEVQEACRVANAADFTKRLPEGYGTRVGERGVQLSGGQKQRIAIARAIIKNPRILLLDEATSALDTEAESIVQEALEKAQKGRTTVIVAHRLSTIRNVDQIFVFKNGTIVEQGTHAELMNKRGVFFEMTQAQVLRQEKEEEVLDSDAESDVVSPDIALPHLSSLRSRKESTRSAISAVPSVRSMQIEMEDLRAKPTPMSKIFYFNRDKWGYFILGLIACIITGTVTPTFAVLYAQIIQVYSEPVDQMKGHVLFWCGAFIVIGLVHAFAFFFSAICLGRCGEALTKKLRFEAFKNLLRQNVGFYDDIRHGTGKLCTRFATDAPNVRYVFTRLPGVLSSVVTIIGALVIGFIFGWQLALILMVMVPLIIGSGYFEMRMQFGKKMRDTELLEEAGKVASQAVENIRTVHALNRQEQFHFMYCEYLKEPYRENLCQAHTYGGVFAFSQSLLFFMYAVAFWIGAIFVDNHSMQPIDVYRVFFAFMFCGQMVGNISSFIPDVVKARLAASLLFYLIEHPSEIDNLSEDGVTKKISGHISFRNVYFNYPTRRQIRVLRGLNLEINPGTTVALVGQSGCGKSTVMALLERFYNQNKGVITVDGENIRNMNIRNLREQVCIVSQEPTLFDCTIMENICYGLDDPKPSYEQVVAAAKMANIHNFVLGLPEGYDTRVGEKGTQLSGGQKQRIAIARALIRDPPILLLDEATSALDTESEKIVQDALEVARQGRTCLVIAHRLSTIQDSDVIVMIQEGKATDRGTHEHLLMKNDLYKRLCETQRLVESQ
T1 sequence (P62813 28-455): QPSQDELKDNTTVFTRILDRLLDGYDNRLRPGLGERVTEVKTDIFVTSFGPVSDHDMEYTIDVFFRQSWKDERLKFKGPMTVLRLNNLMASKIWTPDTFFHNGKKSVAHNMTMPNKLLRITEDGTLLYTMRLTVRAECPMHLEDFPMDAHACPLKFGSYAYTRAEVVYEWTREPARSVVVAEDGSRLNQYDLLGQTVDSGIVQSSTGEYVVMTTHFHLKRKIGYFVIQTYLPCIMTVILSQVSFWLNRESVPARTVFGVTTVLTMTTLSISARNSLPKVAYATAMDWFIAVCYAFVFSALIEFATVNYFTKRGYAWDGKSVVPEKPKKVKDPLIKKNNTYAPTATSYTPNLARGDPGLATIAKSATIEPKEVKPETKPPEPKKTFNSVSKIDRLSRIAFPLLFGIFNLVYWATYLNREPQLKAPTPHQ
T1 sequence (P63138 25-474 limits assumed): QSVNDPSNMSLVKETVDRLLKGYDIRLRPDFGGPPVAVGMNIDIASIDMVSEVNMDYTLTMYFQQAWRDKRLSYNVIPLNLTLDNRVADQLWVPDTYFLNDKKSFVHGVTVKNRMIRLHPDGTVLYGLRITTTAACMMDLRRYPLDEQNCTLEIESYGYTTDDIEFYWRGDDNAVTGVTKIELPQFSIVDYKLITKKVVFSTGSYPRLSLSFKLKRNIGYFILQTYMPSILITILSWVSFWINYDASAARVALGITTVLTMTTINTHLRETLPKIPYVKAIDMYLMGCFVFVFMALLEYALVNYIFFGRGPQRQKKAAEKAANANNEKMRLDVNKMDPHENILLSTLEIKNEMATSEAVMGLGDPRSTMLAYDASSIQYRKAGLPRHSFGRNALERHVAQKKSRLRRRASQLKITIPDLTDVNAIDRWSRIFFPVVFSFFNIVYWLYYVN
T1 sequence (P18508 39-466): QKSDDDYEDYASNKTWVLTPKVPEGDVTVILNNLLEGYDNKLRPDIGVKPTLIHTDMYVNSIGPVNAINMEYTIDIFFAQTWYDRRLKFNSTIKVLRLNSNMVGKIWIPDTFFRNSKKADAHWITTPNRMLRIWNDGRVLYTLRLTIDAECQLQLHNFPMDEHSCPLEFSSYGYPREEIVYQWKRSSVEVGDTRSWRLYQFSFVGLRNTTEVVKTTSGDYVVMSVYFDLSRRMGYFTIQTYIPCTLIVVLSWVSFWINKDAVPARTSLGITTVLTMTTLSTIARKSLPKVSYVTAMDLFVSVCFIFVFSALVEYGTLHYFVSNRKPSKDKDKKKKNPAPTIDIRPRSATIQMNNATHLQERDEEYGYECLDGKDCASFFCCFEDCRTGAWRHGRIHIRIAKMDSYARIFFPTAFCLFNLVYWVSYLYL

## CC[C@]1(O)C[C@@H]2CN(CCc3c([nH]c4ccccc34)[C@@](C(=O)OC)(c3cc4c(cc3OC)N(C)[C@H]3[C@@](O)(C(=O)OC)[C@H](OC(C)=O)[C@]5(CC)C=CCN6CC[C@]43[C@@H]65)C2)C1 [VBL, vinblastine]
[1]
  viability of CEM/VBL cells in vinblastine alone: fully viable
[2]
  sensitivity of parental cells to VBL: highly sensitive

## CCC(C)C1OC2(CCC1C)CC1CC(CC=C(C)C(OC3CC(OC)C(O)C(C)O3)C(C)C=CC=C3COC4C(O)C(C)=CC(C(=O)O1)C34O)O2 (stereo not shown) [IVM Monosaccharide]
[3]
  EC50: 122 nM
  agonist strength at GABA receptors, in words: weak agonist

## CO/N=C1\C[C@]2(C[C@@H]3C[C@@H](C/C=C(\C)C[C@@H](C)/C=C/C=C4\CO[C@@H]5[C@H](O)C(C)=C[C@@H](C(=O)O3)[C@]45O)O2)O[C@H](/C(C)=C/C(C)C)[C@H]1C [MOX, moxidectin]
[3]
  EC50: 5.6 ± 1.5 nM

## Cc1c2oc3c(C)ccc(C(=O)N[C@@H]4C(=O)N[C@H](C(C)C)C(=O)N5CCC[C@H]5C(=O)N(C)CC(=O)N(C)[C@@H](C(C)C)C(=O)O[C@@H]4C)c3nc-2c(C(=O)N[C@@H]2C(=O)N[C@H](C(C)C)C(=O)N3CCC[C@H]3C(=O)N(C)CC(=O)N(C)[C@@H](C(C)C)C(=O)O[C@@H]2C)c(N)c1=O [ActD, actinomycin D] (I: T[dV]P[Sar][NMeV] / II: T[dV]P[Sar][NMeV]; ester I:1-I:C, II:1-II:C; linker I:N-II:N via Actinocin(9to1))
[4]; 1 μM actinomycin D
  DC-3F/ADX viability with actinomycin D alone: not altered
[4]; DC-3F/ADX cells, MTT, read-out: IC50 of actinomycin D alone
  IC50: 5000 nM

## COc1ccc(CCN(C)CCCC(C#N)(c2ccc(OC)c(OC)c2)C(C)C)cc1OC (stereo not shown) [verapamil]
[5]
  RF: 2.1
  effect of the agent alone on the development of C. elegans: had no effects

## ivermectin
[5]; C. elegans IVR10, egg to gravid adult, 96 h
  IC50 of IVM alone: 6.8 ± 0.2 ng/mL
[5]; C. elegans IVR10, egg to gravid adult, 96 h, read-out: IC50 of IVM alone
  IC50: 7.8 ± 0.2 nM
[5]; IVM alone
  concentration blocking the development of C. elegans IVR10 eggs: ~10 nM
Murine Pgp (mdr1a)
  Cmax: concentration to obtain maximum inhibitory effect: 5.0 µM
  Emax: maximum effect compared to maximum effect obtained with 5 μM of valspodar: 88.0 % valspodar ®
Murine Pgp (mdr1a); [7]
  EC50: 500 nM
[4]; DC-3F/ADX cells
  RF (IC50 for toxic drug alone/IC50 for toxic drug in the presence of compound): 45
  toxicity of actinomycin D when combined with the compound: became toxic
[6]
  EC50: 600 nM
[3]; listed as IVM
  EC50: 29.3 ± 3.4 nM
[3]
  EC50: 29 nM

## CCC(C)C1OC2(CCC1C)CC1CC(CC=C(C)C(O)C(C)C=CC=C3COC4C(O)C(C)=CC(C(=O)O1)C34O)O2 (stereo not shown) [Ivermectin aglycone, 22,23-dihydroavermectin B1 aglycone]
[5]
  RF: 1.5
  effect of the agent alone on the development of C. elegans: had no effects
Murine Pgp (mdr1a)
  Cmax: concentration to obtain maximum inhibitory effect: 10.0 µM
  Emax: maximum effect compared to maximum effect obtained with 5 μM of valspodar: 80.0 % valspodar ®
Murine Pgp (mdr1a); listed as ivermectin aglycone
  Cmax: concentration to obtain maximum inhibitory effect: about 10 μM
Murine Pgp (mdr1a); Table 1, read-out: EC50: effective concentration for inhibiting 50% of transport of rhodamine 123 by murine Pgp
  EC50: 1000 nM
Murine Pgp (mdr1a); [7]
  EC50: 2500 nM
[4]; DC-3F/ADX cells
  RF (IC50 for toxic drug alone/IC50 for toxic drug in the presence of compound): 62
  toxicity of actinomycin D when combined with the compound: became toxic
[6]
  EC50: 500 nM
[6]; ratio of EC50 murine Pgp / HcPgpA, 120 min
  inhibitory potency for parasite HcPgpA relative to mammalian Pgp: 5 times
Mdr1ab−/− mice
  toxicity in words: does not show any toxicity
[3]
  EC50: 215 nM
  agonist strength at GABA receptors, in words: weak agonist
